From article PMC10784468 (Nature Communications, 2024)
Positions of bridges follow the written chain, without caps; N, C: chain ends. No end group written: not given here. FeTCPP = ferriporphyrin at the N-terminus; CAA = cis-aconitic anhydride moiety

What was measured:
[1] = test system: MCF-7/MDR xenograft tumors; experiment: In vivo antitumor evaluation in MCF-7/MDR xenografted model; conditions: for mean tumor volume at 20 days post injection / TGI rate: MCF-7/MDR xenograft, Gi-F-CAA 8 mg/kg, DOX and CPT 3 mg/kg; for mean tumor volume at 20 days post injection: six i.v. injections every 2 days, n = 6; for TGI rate: six i.v. injections, 20 days
Excerpt: Female BALB/c nude mice (~8 weeks, 18 g) were subcutaneously inoculated with 5 × 10^6 MCF-7/MDR cells resuspended in Matrigel. […] Individual tumor volume and bodyweight of mouse after different treatment was collected at 2-days intervals for analysis. Mice were killed at 20 days post treatment unless endpoints were exceeded. Moreover, tumors from all groups were harvested under euthanasia and weighed for analysis at the end of treatment.

[2] = molecular target: GPX4mu; conditions: one-to-one binding; ref Biochemical and Biophysical Research Communications. 2017, 482, 195e201; cited from earlier work
Experimental: page 12: Figure 9. […] The manuscript was revised accordingly. […] More explanation on this may be helpful. For instance, why small molecule inhibitors of GPX4 were not used? I suppose small molecules may penetrate tumor better since they are smaller. Beside ... || page 14: calculation of apparent Kd was added in the method section. Specifically, nanoparticles provide large surface area with exposed GPX4 target to achieve multivalent binding, which could remarkably enhance the binding affinity. This concept has been proven by several papers (Adv. Mater. 2023,35, 2211332; Adv Mater, 2023, doi: 10.1002/adma.202303831). […] Biophys. Res.

[3] = test system: GPX4; conditions: ref Biochemical and Biophysical Research Communications. 2017, 482, 195e201, cited from earlier work; for GPX4 inhibitory effect at 100 μM: even at 100 μM
Excerpt: page 12: Figure 9. […] The manuscript was revised accordingly. […] More explanation on this may be helpful. For instance, why small molecule inhibitors of GPX4 were not used? I suppose small molecules may penetrate tumor better since they are smaller. Beside ...

[4] = ζ-potential in PBS; type: physicochemical; conditions: 40 μM in PBS, pH 7.4; mean of n = 3
Experimental: Supplementary Fig. 12. ζ-potential change of Gi-F-CAA (40 μM) in PBS (0.01 M, pH 7.4 or 6.5) (n=3
experimental repeats). Experiment was independently repeated three times with similar results. Values are
(1 picture or pasted object on this page, not shown here)
Supplementary Fig. 13. ζ-potential of NGi-F-CAA, Gi-F and Gi-F-SA (pH 7.4) (40 μM) in PBS (n=3

[5] = test system: EJ cells; experiment: Cytotoxicity assay (CCK-8) on EJ cells
Experimental: Initially, EJ cells were seeded into 96 well plates at a density of 5 × 10^3 per well and incubated in a CO2 incubator overnight at 37 °C. Subsequently, Gi-F (pH = 7.4), Gi-F-SA (pH = 7.4), NGi-F-CAA (pH = 7.4), NGi-F-CAA (pH = 6.5), Gi-F-CAA (pH = 7.4) and Gi-F-CAA (pH = 6.5) at different concentrations (1, 2, 4, 8, 16, 32, 64, 128 and 256 μM) was added to the cells and further incubated for 48 h. Finally, the cell viability rate was calculated by (Sample wells-Blank wells)/(Control wells-Blank wells) × 100%.

[6] = test system: EJ cells; experiment: Intracellular GSH content detection; type: cell-based
Experimental: (§1) Initially, EJ cells (5 × 10^5) were cultured in 6-well plate with a CO2 incubator overnight at 37 °C. […] Next, EJ cells were collected and washed with PBS for 3 times. Afterwards, the cell lysates were collected by centrifugation at 8000 g for 10 min at 4 °C after lysed by freeze-thaw treatment. Finally, the GSH contents were measured with a GSH Assay Kit based on the manufacturer’s instructions.

[7] = test system: EJ cells; experiment: Intracellular Fe2+ ions detection; type: cell-based
Experimental: Initially, EJ cells (5 × 10^5) were cultured in confocal dish with a CO2 incubator overnight at 37 °C. […] Afterwards, EJ cells were washed with PBS for 3 times and replaced with culture mediums.

[8] = test system: EJ cells; experiment: Intracellular LPO content (MDA kit); type: cell-based
Experimental: as §1, with “the LPO” for “the GSH”, “measured by thiobarbituric acid (TBA) reaction” for “measured”, “a Malondialdehyde (MDA)” for “a GSH”

[9] = molecular target: T1, GPX4 (Homo sapiens, UniProt P36969); experiment: Intracellular GPX4 activity detection; type: cell-based; parameters: endogenous in cells; host or cells: EJ bladder cancer cells
T1 sequence (P36969 1-197): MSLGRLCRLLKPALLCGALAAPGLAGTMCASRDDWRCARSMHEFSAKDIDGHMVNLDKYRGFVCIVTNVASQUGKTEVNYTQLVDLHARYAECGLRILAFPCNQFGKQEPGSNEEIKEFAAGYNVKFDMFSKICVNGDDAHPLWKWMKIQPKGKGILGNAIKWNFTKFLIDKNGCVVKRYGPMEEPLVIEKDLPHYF
Experimental: as §1, with “5000 rpm” for “8000 g”, “ultrasonic lysis in an ice bath.” for “lysed by freeze-thaw treatment.”, “GPX4 activity” for “GSH contents”, “GPX” for “GSH”

[10] = test system: 786-O xenograft tumors; experiment: In vivo antitumor evaluation in large tumor model (786-O); parameters: species or system BALB/c nude mice; conditions: six i.v. injections at 2-days intervals, Gi-F-CAA 8 mg/kg, Bevacizumab 5 mg/kg
[11] = molecular target: T2, Gi-F-CAA (synthetic construct, disulfide 9-17 (inferred)); experiment: MST
T2 chain: FeTCPP-LKLKLK(CAA)GACNWLPLYPCPV

[12] = molecular target: T3, NGi-F-CAA (synthetic construct, cysteine pairing not given here; also: cis-aconitic anhydride on Lys); experiment: MST
T3 chain: FeTCPP-LKLKLK(CAA)GACLNWPYLPCPV

[13] = molecular target: T4, Gi-F nanoparticle (synthetic construct, disulfide 9-17 (inferred); also: self-assembled nanoparticle); experiment: MST
T4 chain: FeTCPP-LKLKLKGACNWLPLYPCPV

## CC[C@@]1(O)C(=O)OCc2c1cc1n(c2=O)Cc2cc3ccccc3nc2-1 [CPT]
[1]
  mean tumor volume at 20 days post injection: 1095 mm^3
  TGI rate: 39%
[1]; mice 1
  Tumor weight: 0.95 g
[1]; mice 2
  Tumor weight: 0.87 g
[1]; mice 3
  Tumor weight: 1 g
[1]; mice 4
  Tumor weight: 0.65 g
[1]; mice 5
  Tumor weight: 0.9 g
[1]; mice 6
  Tumor weight: 0.74 g

## CRAWYQNYCALRR [GXpep-2]
[2]
  Kd: 0.61 µM
[3]
  GPX4 inhibitory effect at 100 μM: did not have an inhibitory effect

## GACNWLPLYPCPV (disulfide 3-11 (inferred)) [GXpep-3]
[2]
  Kd: 8.2 µM
[3]; read-out: IC50, GPX4 inhibitory activity
  IC50: 10 µM

## FeTCPP-LKLKLK(CAA)GACLNWPYLPCPV (disulfide) [NGi-F-CAA]
[4]
  Zeta potential (mV): -26.8 mV
[5]; pH 6.5
  IC50: 111 µM
[5]; pH 7.4
  IC50: 155 µM
[6]; pH=7.4, replicate #1
  Relative GSH levels: 0.912
[6]; pH=7.4, replicate #2
  Relative GSH levels: 0.883
[6]; pH=7.4, replicate #3
  Relative GSH levels: 1.029
[7]; EJ cells, pH 7.4, 8 h
  intracellular Fe^2+ (FerroOrange fluorescence), pH 7.4: no remarkable fluorescence
[7]; pH=7.4, replicate #1
  Concentrations of Fe2+ ions: 17.875 ng/104cells
[7]; pH=7.4, replicate #2
  Concentrations of Fe2+ ions: 15.309 ng/104cells
[7]; pH=7.4, replicate #3
  Concentrations of Fe2+ ions: 13.004 ng/104cells
[8]; pH=7.4, replicate #1
  Relative MDA levels: 0.76
[8]; pH=7.4, replicate #2
  Relative MDA levels: 1.04
[8]; pH=7.4, replicate #3
  Relative MDA levels: 1.44
[9]; EJ cells, 8 h, pH 7.4, PBS group normalized as 1, #1
  Relative activity of GPX4: 0.95
[9]; EJ cells, 8 h, pH 7.4, PBS group normalized as 1, #2
  Relative activity of GPX4: 0.9
[9]; EJ cells, 8 h, pH 7.4, PBS group normalized as 1, #3
  Relative activity of GPX4: 1.02
[9]; pH=7.4, replicate #1
  Relative activity of GPX4: 0.94
[9]; pH=7.4, replicate #2
  Relative activity of GPX4: 0.94
[9]; pH=7.4, replicate #3
  Relative activity of GPX4: 1

## Bevacizumab: clinical antitumor drug Avastin (Bevacizumab) [reference compound]
[10]
  tumor volume course in large tumors (~500 mm^3): temporary retarded growth and got out of control thereafter

## CRVDLQGWRRCRR [GXpep-1]
[2]
  Kd: 1.8 µM
[3]
  GPX4 inhibitory effect at 100 μM: did not have an inhibitory effect

## COc1cccc2c1C(=O)c1c(O)c3c(c(O)c1C2=O)C[C@@](O)(C(=O)CO)C[C@@H]3O[C@H]1C[C@H](N)[C@H](O)[C@H](C)O1 [DOX]
[1]
  mean tumor volume at 20 days post injection: 1082 mm^3
  TGI rate: 32%
[1]; mice 1
  Tumor weight: 0.73 g
[1]; mice 2
  Tumor weight: 1.18 g
[1]; mice 4
  Tumor weight: 0.93 g
[1]; mice 6
  Tumor weight: 0.69 g

B1: GPX4 (protein)
chain: SLGRLCRLLKPALLCGALAAPGLAGTMCASRDDWRCARSMHEFSAKDIDGHMVNLDKYRGFVCIVTNVASQUGKTEVNYTQLVDLHARYAECGLRILAFPCNQFGKQEPGSNEEIKEFAAGYNVKFDMFSKICVNGDDAHPLWKWMKIQPKGKGILGNAIKWNFTKFLIDKNGCVVKRYGPMEEPLVIEKDLPHYF
[11]
  Kd: ~1.68 µM
[12]
  Kd: ~17.6 µM
[13]
  Kd: ~0.0303 µM
